Read-outs that look alike come from different tables or passages of the source.
Columns and labels:
[1] = test system: vancomycin- and gentamicin-resistant Enterococcus faecium; assay: microbe, parasite or virus in culture; assay type: cell-based; details: ATCC29212, read-out: MIC of vancomycin, ATCC 29212 (vancomycin-sensitive reference strain), 0.0 (Control)
[2] = test system: vancomycin- and gentamicin-resistant Enterococcus faecium; assay: microbe, parasite or virus in culture; assay type: cell-based; details: Enterococcus faecium, 0.0 (Control)
Text: The agents of the present invention are not limited to the reversal of resistance in Staphylococcus. The test strains in Table 5 are patient-isolates of vancomycin- and gentamicin-resistant Enterococcus faecium. At the time of isolation, they were commonly resistant to all clinically useable antimicrobial agents.

[3] = test system: MRSA with intermediate resistance to glycopeptides; assay: MIC of vancomycin or teicoplanin for MRSA with intermediate resistance to glycopeptides grown with GBE or NAGly (Table 4); assay type: cell-based, Staphylococcus aureus; details: for MIC: Staphylococcus aureus
[4] = test system: glycopeptide-resistant enterococci; details: cited from earlier work
VRE = assay: Antimicrobial plus BTA against VRE (Table 7); assay type: cell-based, enterococci
MRSA [5] = assay: Antimicrobial plus BTA against recent clinical MRSA isolates (Table 7); assay type: cell-based, Staphylococcus aureus
Text: The four clinical isolates were isolated from patients during the first three months of 2003. […] An intermediate MRSA has been included, as methicillin-resistance has been achieved by means other than production of PBP2a.

[6] = test system: vancomycin-resistant enterococci (VRE); assay: Activity of BTAs against vancomycin-resistant enterococci; assay type: cell-based
MRSA [7] = assay: Screening on Isosensitest agar with incorporated BTA and 10 μg methicillin discs; assay type: cell-based, Staphylococcus aureus
Method: To find substances related to GBE that might have increased potency, various substances, including those with additional glycine moieties and benzylates, have been screened. Screening was carried out using Isosensitest agar (Oxoid, UK) into which various levels of potential BTAs were incorporated at levels between 0.01 and 1.0%. The agar with incorporated BTA was then used in the manner of a standard antibiotic sensitivity test using 10 μg methicillin discs. The test organism was inoculated onto the agar surface at a concentration suitable to achieve confluent growth after 18 hours incubation at 30° C. After incubation, zone diameters were compared with that achieved by the control plate (Isosensitest alone) for each test organism.

[8] = cited from earlier work
E. faecium = details: cited from earlier work
[9] = vanA, E. faecium and E. faecalis

`CN[C@H](CC(C)C)C(=O)N[C@H]1C(=O)N[C@@H](CC(N)=O)C(=O)N[C@H]2C(=O)N[C@H]3C(=O)N[C@H](C(=O)N[C@H](C(=O)O)c4cc(O)cc(O)c4-c4cc3ccc4O)[C@H](O)c3ccc(c(Cl)c3)Oc3cc2cc(c3O[C@@H]2O[C@H](CO)[C@@H](O)[C@H](O)[C@H]2O[C@H]2C[C@](C)(N)[C@H](O)[C@H](C)O2)Oc2ccc(cc2Cl)[C@H]1O` [vancomycin] gave an MIC [1] of 2 µg/mL, an MIC ([2]; read-out: MIC of vancomycin, BBC) of 32 µg/mL and an MIC ([2]; read-out: MIC of vancomycin, E254) of 128 µg/mL. It also gave an MIC ([2]; read-out: MIC of vancomycin, E267) of 128 µg/mL, an MIC ([2]; read-out: MIC of vancomycin, E271) of 64 µg/mL and an MIC ([2]; read-out: MIC of vancomycin, E285) of 64 µg/mL. It also gave an MIC ([2]; read-out: MIC of vancomycin, E297) of 128 µg/mL, an MIC ([2]; read-out: MIC of vancomycin, GBC) of 64 µg/mL and an MIC ([2]; read-out: MIC of vancomycin, S226) of 128 µg/mL. The MIC ([2]; read-out: MIC of vancomycin, S227) was 128 µg/mL, the MIC ([2]; read-out: MIC of vancomycin, S283) was 64 µg/mL and the MIC ([2]; read-out: MIC of vancomycin, S302) was 64 µg/mL. For the same compound, the MIC ([2]; read-out: MIC of vancomycin, S315) was 64 µg/mL, the MIC ([2]; read-out: MIC of vancomycin, S317) was 128 µg/mL and the MIC ([2]; read-out: MIC of vancomycin, S319) was 64 µg/mL. The MIC ([2]; read-out: MIC of vancomycin, S333) was 64 µg/mL, the MIC ([2]; read-out: MIC of vancomycin, S337) was 32 µg/mL and the MIC ([2]; read-out: MIC of vancomycin, S393) was 64 µg/mL. For the same compound, the MIC ([2]; read-out: MIC of vancomycin, S497) was 64 µg/mL, the MIC ([2]; read-out: MIC of vancomycin, S556) was 64 µg/mL and the MIC ([2]; read-out: MIC of vancomycin, WBC) was 64 µg/mL. For the same compound, the MIC ([3]; MRSA / NCTC 12493, read-out: MIC of vancomycin, NCTC 12493, Control) was 0.5 µg/mL, the MIC ([3]; MRSA / NCTC 12493, read-out: MIC of vancomycin, reference strain NCTC 12493, as stated in text on Table 1) was 2 µg/mL and the MIC ([3]; MRSA / VISA, read-out: MIC of vancomycin, L266 (first line), EMRSA-17 (VISA), Control) was 8 µg/mL. For the same compound, the MIC ([3]; MRSA / VISA, read-out: MIC of vancomycin, L266 (second line), EMRSA-17 (VISA), Control) was 8 µg/mL, the “level of vancomycin to which resistance is conferred” value [4, 9] was at least 256 mg/L and the “level of vancomycin to which resistance is conferred” value ([4]; vanE, E. faecalis) was 16 mg/L. The Vancomycin (antimicrobial plus BTA; quantity not named, MIC implied) (VRE; vancomycin alone) was over 256 µg/mL, the Vancomycin (antimicrobial plus BTA; quantity not named, MIC implied) (MRSA [5]; EMRSA-16, vancomycin alone) was 1 µg/mL and the Vancomycin (antimicrobial plus BTA; quantity not named, MIC implied) (MRSA [5]; EMRSA-17, vancomycin alone) was 2 µg/mL. It also gave a Vancomycin (antimicrobial plus BTA; quantity not named, MIC implied) (MRSA [5]; I-MRSA, vancomycin alone) of 0.5 µg/mL.
In the case of N-carbamoylglycine (Hydantoic acid), the “activity against vancomycin-resistant enterococci (VRE)” value [6] is reported as “low-level active”.
In the case of `Nc1ccc(C(=O)NCC(=O)O)cc1` [Amino-HA, P-Amino Hippuric acid], the “activity relative to Hippuric acid and GBE” value (MRSA [7]) is reported as “improved activity”, the Vancomycin (antimicrobial plus BTA; quantity not named, MIC implied) (VRE; +BTA 0.1%) is reported as 64 µg/mL and the Cephalexin (antimicrobial plus BTA; quantity not named, MIC implied) (MRSA [5]; EMRSA-16, +BTA 0.01%) is reported as 3 µg/mL. It also gave an Oxacillin (antimicrobial plus BTA; quantity not named, MIC implied) (MRSA [5]; EMRSA-16, +BTA 0.01%) of 3 µg/mL, a Cephalexin (antimicrobial plus BTA; quantity not named, MIC implied) (MRSA [5]; EMRSA-16, +BTA 0.1%) of 1 µg/mL and an Oxacillin (antimicrobial plus BTA; quantity not named, MIC implied) (MRSA [5]; EMRSA-16, +BTA 0.1%) of 0.75 µg/mL. For the same compound, the Vancomycin (antimicrobial plus BTA; quantity not named, MIC implied) (MRSA [5]; EMRSA-16, +BTA 0.1%) was 0.25 µg/mL, the Cephalexin (antimicrobial plus BTA; quantity not named, MIC implied) (MRSA [5]; EMRSA-17, +BTA 0.01%) was 6 µg/mL and the Oxacillin (antimicrobial plus BTA; quantity not named, MIC implied) (MRSA [5]; EMRSA-17, +BTA 0.01%) was 6 µg/mL. It also gave a Cephalexin (antimicrobial plus BTA; quantity not named, MIC implied) (MRSA [5]; EMRSA-17, +BTA 0.1%) of 4 µg/mL, an Oxacillin (antimicrobial plus BTA; quantity not named, MIC implied) (MRSA [5]; EMRSA-17, +BTA 0.1%) of 1 µg/mL and a Vancomycin (antimicrobial plus BTA; quantity not named, MIC implied) (MRSA [5]; EMRSA-17, +BTA 0.1%) of 0.25 µg/mL. For the same compound, the Cephalexin (antimicrobial plus BTA; quantity not named, MIC implied) (MRSA [5]; I-MRSA, +BTA 0.01%) was 1.5 µg/mL, the Oxacillin (antimicrobial plus BTA; quantity not named, MIC implied) (MRSA [5]; I-MRSA, +BTA 0.01%) was 1.5 µg/mL and the Cephalexin (antimicrobial plus BTA; quantity not named, MIC implied) (MRSA [5]; I-MRSA, +BTA 0.1%) was 0.064 µg/mL. It also gave an Oxacillin (antimicrobial plus BTA; quantity not named, MIC implied) (MRSA [5]; I-MRSA, +BTA 0.1%) of 0.064 µg/mL and a Vancomycin (antimicrobial plus BTA; quantity not named, MIC implied) (MRSA [5]; I-MRSA, +BTA 0.1%) of under 0.25 µg/mL.
In the case of teicoplanin, the half life [8] is given as 12 h, the MIC of teicoplanin ([3]; L265, EMRSA-16 (TISA), Control) is given as 32 mg/L and the MIC of teicoplanin ([3]; L266, EMRSA-16 (TISA), Control) is given as 8 mg/L. The MIC of teicoplanin ([3]; NCTC 12493, Control) was 0.25 mg/L, the “level of teicoplanin to which resistance is conferred” value (“level of teicoplanin” below) [4, 9] was at least 32 mg/L and the “level of teicoplanin” value ([4]; vanB) was at most 1.0. For the same compound, the “level of teicoplanin” value ([4]; vanC1, vanC2, vanC3) was at most 1.0 and the “level of teicoplanin” value ([4]; vanE, E. faecalis) was 0.5 mg/L.
In the case of quinupristin/dalfopristin, the “E. faecium isolates against which active (MIC≦2 mg/L)” value (E. faecium) is given as 86%.
With `CCOC(=O)CNC(=O)CN` [GGEE, Glycylglycine ethyl ester] the “activity against VRE and MRSA relative to glycylglycine benzyl ester” value (MRSA [7]; VRE and MRSA) was “greater activity”, the Vancomycin (antimicrobial plus BTA; quantity not named, MIC implied) (VRE; +BTA 1.0%) was 64 µg/mL and the Oxacillin (antimicrobial plus BTA; quantity not named, MIC implied) (MRSA [5]; EMRSA-16, +BTA 0.01%) was 1.5 µg/mL. It also gave a Cephalexin (antimicrobial plus BTA; quantity not named, MIC implied) (MRSA [5]; EMRSA-16, +BTA 0.1%) of 1.5 µg/mL, an Oxacillin (antimicrobial plus BTA; quantity not named, MIC implied) (MRSA [5]; EMRSA-16, +BTA 0.1%) of 1 µg/mL and a Cephalexin (antimicrobial plus BTA; quantity not named, MIC implied) (MRSA [5]; EMRSA-16, +BTA 1.0%) of 0.75 µg/mL. It also gave an Oxacillin (antimicrobial plus BTA; quantity not named, MIC implied) (MRSA [5]; EMRSA-16, +BTA 1.0%) of 0.75 µg/mL, a Vancomycin (antimicrobial plus BTA; quantity not named, MIC implied) (MRSA [5]; EMRSA-16, +BTA 1.0%) of 0.25 µg/mL and an Oxacillin (antimicrobial plus BTA; quantity not named, MIC implied) (MRSA [5]; EMRSA-17, +BTA 0.01%) of 3 µg/mL. The Cephalexin (antimicrobial plus BTA; quantity not named, MIC implied) (MRSA [5]; EMRSA-17, +BTA 0.1%) was 2 µg/mL, the Oxacillin (antimicrobial plus BTA; quantity not named, MIC implied) (MRSA [5]; EMRSA-17, +BTA 0.1%) was 2 µg/mL and the Cephalexin (antimicrobial plus BTA; quantity not named, MIC implied) (MRSA [5]; EMRSA-17, +BTA 1.0%) was 1 µg/mL. It also gave an Oxacillin (antimicrobial plus BTA; quantity not named, MIC implied) (MRSA [5]; EMRSA-17, +BTA 1.0%) of 1 µg/mL, a Vancomycin (antimicrobial plus BTA; quantity not named, MIC implied) (MRSA [5]; EMRSA-17, +BTA 1.0%) of 0.25 µg/mL and an Oxacillin (antimicrobial plus BTA; quantity not named, MIC implied) (MRSA [5]; I-MRSA, +BTA 0.01%) of 1 µg/mL. For the same compound, the Cephalexin (antimicrobial plus BTA; quantity not named, MIC implied) (MRSA [5]; I-MRSA, +BTA 0.1%) was 0.75 µg/mL, the Oxacillin (antimicrobial plus BTA; quantity not named, MIC implied) (MRSA [5]; I-MRSA, +BTA 0.1%) was 0.75 µg/mL and the Cephalexin (antimicrobial plus BTA; quantity not named, MIC implied) (MRSA [5]; I-MRSA, +BTA 1.0%) was 0.38 µg/mL. The Oxacillin (antimicrobial plus BTA; quantity not named, MIC implied) (MRSA [5]; I-MRSA, +BTA 1.0%) was 0.32 µg/mL and the Vancomycin (antimicrobial plus BTA; quantity not named, MIC implied) (MRSA [5]; I-MRSA, +BTA 1.0%) was under 0.25 µg/mL.

— patent US20060040871A1, “Bacterial transforming agent” (priority 2003, published 2006)
